Reference: publication PMC6920794, “Evaluation of Novel Chalcone-Thiosemicarbazones Derivatives as Potential Anti-Leishmania amazonensis Agents and Its HSA Binding Studies” (Biomolecules, 2019)
Like-named read-outs stand apart in the source and are kept apart here.

Columns and labels:
[1] = target: T1, human serum albumin (HSA) (Homo sapiens, UniProt P02768); assay: HSA time-resolved fluorescence decays; type: binding; conditions: 5e 2.78 × 10^−5 M, HSA 1.00 × 10^−5 M, room temperature
T1 construct: purchased Sigma Aldrich, St. Louis, MO, USA
Method: The fluorimeter model FL920 CD from Edinburgh Instruments (Edinburgh, UK), equipped with an electrically pumped laser (EPL, with λexc = 280 ± 10 nm; a pulse of 850 ps with the energy of […]; monitoring emission at 340 nm) was used for time-resolved fluorescence decays measurement. The experiment was conducted for a 3.0 mL HSA solution (1.00 × 10^−5 M, in PBS) without and in the presence of 5e (2.78 × 10^−5 M) at room temperature.

[2] = test system: murine peritoneal macrophages; assay: Macrophage cytotoxicity (resazurin); type: cell-based; conditions: BALB/c, mouse, 48 h, pH 7.2
Method: Peritoneal macrophages from albino laboratory-bred strain (BALB/c) mice were obtained in RPMI 1640 medium at pH 7.2 (Gibco, New York, NY, USA) supplemented with 10% (v/v) heat-inactivated fetal bovine serum, 100 U/mL penicillin and 0.1 mg/mL of streptomycin and distributed (1 × 10^6 macrophages/well) in triplicate in 96-well plates (Falcon Co., Franklin Lakes, USA) and incubated for 1 h in a 5% CO2 atmosphere incubator at 310K. The supernatant was removed, and the compounds were added to the plate at concentrations from 10 µM to 50 µM. Next, the cultures were incubated for 48 h in a CO2 incubator at 310K. After incubation, the supernatant was removed and a resazurin solution (50 µM) was added to each well and incubated at 310K for 4 h. Furthermore, the fluorescence was measured using a wavelength of 560 nm for excitation and 590 nm for detection (Molecular Devices, Silicon Valley, USA). Results were expressed as the percentage of viable cells compared to the control cells treated with the highest DMSO dose used to dissolve the drugs. The 50% cytotoxic concentration (CC50) was calculated using GraphPad Prism 6.0 software (GraphPad Company, San Diego, CA, USA).

[3] = target: T1, human serum albumin (HSA); assay: HSA circular dichroism (α-helix content); type: binding; conditions: 310K, 5e 2.78 × 10^−5 M
Method: Circular dichroism (CD) spectra were measured in the same equipment used in the steady-state fluorescence analysis, using 200–250 nm range at 310K (human body temperature). The experiment was conducted for a 3.0 mL HSA solution (1.00 × 10^−6 M, in PBS) in the absence and presence of 5e (2.78 × 10^−5 M). Each spectrum obtained was the average of three scans. The intensity of the signal from the CD spectra was expressed as mean residue ellipticity (MRE), defined according to Equation (7):(7) MRE=θ/10×n×l×Cp where θ, n, l and Cp are the observed CD (in millidegrees), number of amino acid residues (585 for HSA), optical pathlength of the cell (1.00 cm) and molar concentration of HSA (1.00 × 10^−6 M), respectively.
In order to calculate quantitative information on the percentage of changes in the α-helix content upon 5e binding, the resulting MRE at 208 and 222 nm (far-UV region) were analyzed according to Equations (8A) and (8B):(8A) α−helix%=(−MRE208−4000)/(33000−4000)×100 (8B) α−helix%=(−MRE222−2340)/30300×100

[4] = target: T1, human serum albumin (HSA); assay: HSA binding, steady-state fluorescence quenching; conditions: for KSV Stern-Volmer quenching constant: PBS pH 7.4
Method: The chemicals HSA and PBS buffer were purchased from Sigma Aldrich, St. Louis, MO, USA and the pH of buffer solution was checked (pH = 7.40). Jasco J-815 optical spectrometer (Jasco Easton, MD, USA) was used as equipment for steady-state fluorescence and circular dichroism (CD) spectra measurements and a thermostatic cuvette holder Jasco PFD-425S15F (Jasco Easton, MD, USA) was applied for control of temperature in the quartz cell (1.0 cm optical path). All spectra were recorded as the average of three scans with appropriate background corrections. For steady-state fluorescence measurements it was applied 305–450 nm range as emission wavelength (λexc = 295 nm) at 289K, 296K, 303K and 310K. First, it was recorded spectra for HSA solution (1.00 × 10^−5 M, in PBS) and then it was added manually the compound 5e, achieving final ligand concentrations of 0.35; 0.70; 1.05; 1.40; 1.74; 2.09; 2.44; and 2.78 × 10^−5 M.
In order to delete the possible absorption contribution of the compound 5e in the steady-state fluorescence results, inner filter effect was applied, according to the Equation 2 [33]:(2) Fcor=FObs10^[Aex+Aem/2] where Fcor and Fobs are the corrected and observed fluorescence intensity values, while Aex and Aem represent the absorbance value at the excitation (λ = 295 nm: ε = 6,235 cm^−1M^−1 in PBS) and emission wavelengths (λ = 340 nm: ε = 4,550 cm^−1M^−1 in PBS).
The steady-state fluorescence results for the interaction HSA:5e were analyzed according to Stern-Volmer (Equation 3), double logarithmic (Equation 4), van’t Hoff (Equation 5) and Gibbs’ free energy (Equation 6) approximations:(3) F0/F=1+Ksv[Q]=1+kqτ0[Q] (4) log(F0−F/F)=logKa+nlog[Q] (5) lnKa=−ΔH°/RT+ΔS°/R (6) ΔG°=ΔH°−TΔS° where F0 and F are the steady-state fluorescence intensities of HSA in the absence and presence of 5e, respectively. [Q], KSV and kq are the 5e concentration, Stern-Volmer quenching constant and bimolecular quenching rate constant, respectively. τ0 is the experimental fluorescence lifetime of HSA in the absence 5e (5.98 ± 0.15) × 10^−9 s. Ka and ƒ are the binding constant and fraction of the initial fluorescence intensity corresponding to the fluorophore which is accessible by the quencher (f ≈ 1.00), respectively. ΔH°, ΔS° and ΔG° are the enthalpy, entropy and Gibbs’ free energy change, respectively. T and R are the temperature (289 K, 296 K, 303 K and 310 K) and gas constant (8.3145 Jmol^−1K^−1), respectively. All quantitative values were expressed as “± SD” (obtained through three scans).

T1 sequence (P02768 25-609): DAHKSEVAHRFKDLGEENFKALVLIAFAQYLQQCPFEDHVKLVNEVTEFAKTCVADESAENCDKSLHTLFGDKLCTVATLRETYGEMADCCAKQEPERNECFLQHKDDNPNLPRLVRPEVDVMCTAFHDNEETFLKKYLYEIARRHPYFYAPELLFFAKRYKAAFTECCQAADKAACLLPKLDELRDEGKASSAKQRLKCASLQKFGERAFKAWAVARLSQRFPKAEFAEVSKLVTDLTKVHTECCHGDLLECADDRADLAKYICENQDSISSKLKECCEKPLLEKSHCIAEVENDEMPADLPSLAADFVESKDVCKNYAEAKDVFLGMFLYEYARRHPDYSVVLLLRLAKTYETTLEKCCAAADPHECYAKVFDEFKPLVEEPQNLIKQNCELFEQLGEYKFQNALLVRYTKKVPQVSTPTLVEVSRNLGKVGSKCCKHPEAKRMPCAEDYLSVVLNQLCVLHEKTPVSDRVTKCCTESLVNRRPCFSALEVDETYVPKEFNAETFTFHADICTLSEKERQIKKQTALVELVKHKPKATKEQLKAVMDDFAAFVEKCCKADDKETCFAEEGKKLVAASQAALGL

## NC(=S)N/N=C(\C=C\c1ccc(Cl)cc1)c1ccccc1 [Compound 5e, (1E,2E)-3-(4′-chlorophenyl)-1-phenylprop-2-en-1-one thiosemicarbazone]
[1]
  HSA fluorescence lifetime τ1 in the presence of ligand: 1.77 ± 0.12 ns
  HSA fluorescence lifetime τ2 in the presence of ligand: 5.91 ± 0.16 ns
[2]
  Macrophages LD50: 32.48 ± 1.81 µM
[3]; HSA alone 53.5%
  α-helix content of HSA:5e at 222 nm: 52.2%
[3]; HSA alone 57.1%
  α-helix content of HSA:5e at 208 nm: 55.2%
[4]
  n number of binding sites: ~ 1
[4]; 289 K
  kq bimolecular quenching rate constant: 4.15e+12 M⁻¹ s⁻¹
  n number of binding sites: 1.05 ± 0.01
  ΔG° Gibbs' free energy change: −26.1 kJmol^−1
  KSV Stern-Volmer quenching constant: 2.48 ± 0.52 ×10^4 M^−1
[4]; 289 K, double logarithmic approximation, read-out: Ka binding constant (converted)
  Kd: 19.4 µM
[4]; 296 K
  kq bimolecular quenching rate constant: 4.16e+12 M⁻¹ s⁻¹
  n number of binding sites: 1.07 ± 0.01
  ΔG° Gibbs' free energy change: −26.6 kJmol^−1
  KSV Stern-Volmer quenching constant: 2.49 ± 0.50 ×10^4 M^−1
[4]; 296 K, double logarithmic approximation, read-out: Ka binding constant (converted)
  Kd: 20.6 µM
[4]; 303 K
  kq bimolecular quenching rate constant: 4.34e+12 M⁻¹ s⁻¹
  n number of binding sites: 1.06 ± 0.01
  ΔG° Gibbs' free energy change: −27.1 kJmol^−1
  KSV Stern-Volmer quenching constant: 2.59 ± 0.51 ×10^4 M^−1
[4]; 303 K, double logarithmic approximation, read-out: Ka binding constant (converted)
  Kd: 21.9 µM
[4]; 310 K
  kq bimolecular quenching rate constant: 4.6e+12 M⁻¹ s⁻¹
  n number of binding sites: 1.05 ± 0.01
  ΔG° Gibbs' free energy change: −27.6 kJmol^−1
  KSV Stern-Volmer quenching constant: 2.75 ± 0.33 ×10^4 M^−1
[4]; 310 K, double logarithmic approximation, read-out: Ka binding constant (converted)
  Kd: 22.8 µM
[4]; all temperatures, read-out: Ka binding constant (order of magnitude)
  Kd: ~100 µM
[4]; maximum addition of the ligand 2.78 × 10^−5 M, HSA 1.00 × 10^−5 M
  decrease of HSA fluorescence emission: about 50%
[4]; van't Hoff plot, 289–310 K
  ΔH° enthalpy change: −5.79 ± 0.27 kJmol^−1
  ΔS° entropy change: 7.02 ± 0.09 ×10^−2 kJmol^−1K^−1
